From the supplement of paper PMC10307832

Columns and labels:
Assay in all cases: relative viability (nuclei count vs DMSO), 5 days (fraction); higher = more cells survive
[1] = compound: C1CNCCC1C2=CC(=NN2)C3=CC=NC=C3 + Cc1nc(NC(=O)N2CCC[C@H]2C(N)=O)sc1-c1ccnc(C(C)(C)C(F)(F)F)c1 [Alpelisib] (partner 2 µM)
How it was run: (§1)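 Each reported value is a median over duplicate plates. It expresses relative viability: treated-well nuclei count divided by vehicle-well nuclei count. Lung cancer cell lines in 1536-well plates were dosed by pin tool a day after seeding, alone with one drug or with a fixed anchor-drug dose plus five library-drug doses (not always all listed) in √10 steps, and nuclei were counted after 5 days.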

[2] = compound: C[C@@H](N)c1ccc(C(=O)Nc2ccnc3[nH]ccc23)cc1 + C[C@@H](Oc1cc(-c2cnn(C3CCNCC3)c2)cnc1N)c1c(Cl)ccc(F)c1Cl [Crizotinib] (partner 1 µM)
How it was run: as §1

[3] = compound: C[C@@H](N)c1ccc(C(=O)Nc2ccnc3[nH]ccc23)cc1 + Cc1nc(NC(=O)N2CCC[C@H]2C(N)=O)sc1-c1ccnc(C(C)(C)C(F)(F)F)c1 [Alpelisib] (partner 2 µM)
How it was run: as §1

Tanzisertib + Alpelisib = compound: O[C@H]1CC[C@H](Nc2ncc3nc(Nc4c(F)cc(F)cc4F)n([C@H]4CCOC4)c3n2)CC1 [Tanzisertib] + Cc1nc(NC(=O)N2CCC[C@H]2C(N)=O)sc1-c1ccnc(C(C)(C)C(F)(F)F)c1 [Alpelisib] (partner 2 µM)
How it was run: as §1

Cell Line	relative viability ([1]; first compound 0.08 µM)	relative viability ([1]; first compound 0.8 µM)	relative viability ([1]; first compound 2.53 µM)	relative viability ([1]; first compound 8 µM)	relative viability ([2]; first compound 0.04 µM)	relative viability ([2]; first compound 0.1265 µM)	relative viability ([2]; first compound 0.4 µM)	relative viability ([2]; first compound 1.265 µM)	relative viability ([2]; first compound 4 µM)	relative viability ([3]; first compound 0.04 µM)	relative viability ([3]; first compound 0.1265 µM)	relative viability ([3]; first compound 0.4 µM)	relative viability ([3]; first compound 1.265 µM)	relative viability ([3]; first compound 4 µM)	relative viability (Tanzisertib + Alpelisib; first compound 0.08 µM)	relative viability (Tanzisertib + Alpelisib; first compound 0.253 µM)	relative viability (Tanzisertib + Alpelisib; first compound 0.8 µM)	relative viability (Tanzisertib + Alpelisib; first compound 2.53 µM)	relative viability (Tanzisertib + Alpelisib; first compound 8 µM)
NCI-H460	0.381	0.343	0.593	0.62	1.1	0.943	0.966	0.516	0.603	0.531	0.549	0.697	0.555	0.41	0.716	0.441	0.477	0.356	0.286
NCI-H520	0.88	0.666	0.831	0.658	0.824	0.852	0.801	1.05	0.804	0.971	0.969	1.21	1.12	1.07	0.958	0.886	1.07	0.937	0.927
NCI-H596	0.508	0.488	0.526	0.532	1.04	0.899	0.934	0.809	0.93	0.556	0.496	0.508	0.498	0.409	0.539	0.448	0.421	0.407	0.471
NCI-H647	0.969	1.12	1.31	1.22	1.09	0.98	1.02	0.882	0.692	1.32	1.08	0.962	0.96	0.928	1.12	1.31	1.16	1.26	1.08
NCI-H650	0.86	1.08	1.22	0.997	0.66	0.639	0.745		0.587	1.19	1.15	1.06		0.841	1.1	1.19	1.18	1.21	1.18
NCI-H661	0.879	0.647	0.799	0.733	0.906	0.929	1.18	1.02	0.89	0.77	1.05	0.914	0.157	0.634	0.84	0.716	0.561	0.527	0.412
NCI-H727	0.478	0.552	0.542	0.524	1.04	1	1.21	1.19	0.842	0.572	0.809	0.41	0.937	0.786	0.511	0.463	0.654	0.515	0.684
NCI-H838	0.984	1.11	1.03	0.996	0.835	0.778	0.638	0.431	0.316	0.909	0.884	0.773	0.571	0.344	1.02	1	0.92	0.965	0.973
NCI-H1299	1.13	1.22	1.04	1.06	0.905	0.911	0.845	0.845	0.713	1.05	1.04	0.997	0.894	0.926	1.07	1.05	1.08	1.01	1.14
NCI-H1355	0.826	0.706	0.804	0.822	1.04	1.09	1.19		0.941	0.885	0.833	0.919		0.746	0.838	0.871	0.886	0.864	0.881
NCI-H1437	0.941	0.979	0.999	0.928	0.915	0.851	0.943	1.01	0.792	0.899	0.935	0.945	0.934	0.764	0.998	1	0.964	0.958	0.722
NCI-H1563	0.709	0.932	0.95	0.989	0.981	0.794	0.753	0.883	0.934	0.958	0.995	0.985	0.971	0.918	0.92	0.935	0.875	0.862	0.977
NCI-H1651	0.767	1.09	0.904	1	0.921	0.822	0.916	0.898	0.837	1.06	0.942	1.01	1.14	1.06	1.17	0.934	1.01	0.988	0.817
NCI-H1666	0.907	0.849	1.18	1.13	1.12	0.967	1.22	1.16	1.33	0.973	1.12	1.18	1.36	1.16	0.935	1.01	1.06	1.1	1.01
NCI-H1703	0.345	0.268	0.347	0.278	0.565	0.611	0.641	0.577	0.71	0.332	0.382	0.345		0.317	0.409	0.251	0.328	0.309	0.303
NCI-H1734	0.684	0.618	0.768	0.706	0.669	0.719	0.653		0.575	0.747	0.638	0.622		0.487	0.724	0.704	0.673	0.702	0.642
NCI-H1755	0.938	0.837	0.906	0.863	0.808	0.822	0.813	0.795	0.608	0.935	0.899	0.886	0.856	0.635	1.05	0.897	0.918	0.84	0.852

Cell Line	relative viability ([1]; first compound 0.08 µM)	relative viability ([1]; first compound 0.8 µM)	relative viability ([1]; first compound 2.53 µM)	relative viability ([1]; first compound 8 µM)	relative viability ([2]; first compound 0.04 µM)	relative viability ([2]; first compound 0.1265 µM)	relative viability ([2]; first compound 0.4 µM)	relative viability ([2]; first compound 1.265 µM)	relative viability ([2]; first compound 4 µM)	relative viability ([3]; first compound 0.04 µM)	relative viability ([3]; first compound 0.1265 µM)	relative viability ([3]; first compound 0.4 µM)	relative viability ([3]; first compound 1.265 µM)	relative viability ([3]; first compound 4 µM)	relative viability (Tanzisertib + Alpelisib; first compound 0.08 µM)	relative viability (Tanzisertib + Alpelisib; first compound 0.253 µM)	relative viability (Tanzisertib + Alpelisib; first compound 0.8 µM)	relative viability (Tanzisertib + Alpelisib; first compound 2.53 µM)	relative viability (Tanzisertib + Alpelisib; first compound 8 µM)
NCI-H1792	0.637	0.519	0.773	0.618	0.964	0.976	1.08	0.916	0.854	0.733	0.648	0.745	0.691	0.62	0.677	0.647	0.737	0.665	0.671
NCI-H1915	1	1.06	1.07	1.09	0.911	0.886	0.929		0.81	1.12	1.06	1.06		0.873	1.15	1.05	1.06	1.04	1.04
NCI-H1944	0.85	0.601	0.83	0.938	1.12	1.1	1.12		0.94	0.981	0.796	0.928		0.657	0.876	0.822	0.822	0.789	0.758
NCI-H1975	0.667	0.622	0.58	0.629	1.02	0.961	0.944	0.873	0.727	0.692	0.593	0.553	0.617	0.534	0.676	0.715	0.719	0.653	0.585
NCI-H1993	0.654	0.668	0.699	0.669	0.867	0.743		0.877	0.878	0.693	0.694		0.718	0.685	0.661	0.663	0.524	0.693	0.699
NCI-H2009	1.25	1.16	1.13	1.14	1.05	0.954	0.825	0.808	0.644	1.11	1.13	1.1	0.996	0.786	1.24	1.2	1.14	1.19	1.17
NCI-H2023	0.539	0.5	0.573	0.613	0.738	0.596	0.733	0.741	0.544	0.684	0.681	0.836	0.681	0.608	0.671	0.577	0.627	0.584	0.545
NCI-H2085	0.926	0.514	1.02	0.98	0.914	0.917	0.786	0.749	0.718	1	0.923	0.925	0.936	0.966	0.997	0.96	0.966	0.948	1.01
NCI-H2087	0.862	1.07	1.07	0.985	0.824	0.538	0.581	0.788	0.386	0.897	0.855	0.803	0.844	0.495	1.27	1.22	1.24	1.11	1.32
NCI-H2126	0.761	0.634	0.777	0.752	1.03	1.02	1.03	1.02	1.04	0.828	0.795	0.79	0.82	0.881	0.775	0.749	0.749	0.725	0.736
NCI-H2170	0.734	0.761	0.81	0.684	1.21	1.08	1.18	1.21	1.08	0.879	0.436	0.765	0.833	0.627	0.98	0.787	0.796	0.779	0.809
NCI-H2228	0.769	0.872	0.851	0.617	0.373	0.463	0.653	0.556	0.497	0.822	0.824	0.934	0.766	1.01	0.934	0.67	0.806	0.737	0.539
NCI-H2347	0.989	0.938	1.17	1.01	0.668	0.775	0.776	0.714	0.605	1.02	0.976	1.2	1.05	0.845	1.17	1.04	1.1	1.16	1.11
NCI-H2405	0.792	0.62	0.875	0.686	0.689	0.904	0.868	0.68	0.387		0.783	0.536	0.413	0.217	0.933	0.696	0.805	0.83	0.547
NCI-H3122	0.87	0.81	0.799	0.753	0.286	0.295	0.264	0.346	0.303	0.827	0.76	0.827	0.762	0.797	0.965	0.735	0.844	0.731	0.782
PC-3 [JPC-3]	1	1.03	1.05	1.02	0.969	0.931	1.01	1.1	0.917	1.1	1.09	1.03	1.12	0.866	1.05	1.07	1.12	1.03	0.972
PC-14	0.938	0.913	1.1	0.923	0.846	0.871	0.921	0.8	0.657	0.925	0.932	1.02	1.02	0.811	0.942	0.947	0.943	0.873	0.57
